Laboratory results as given in patent US12707888B2, “Asymmetric donor-acceptor molecular dyes” (THE UNIVERSITY OF NORTH CAROLINA AT CHARLOTTE, priority 2019, dated 2026).

What was measured:
[1] = Temperature studies of emission in MeTHF (thermofluorochromism); assay type: physicochemical; settings: for wavelength of emission: 10 μM in MeTHF
Method: In an extension of sensing the surrounding polarity, the dependence of the wavelength of emission as a function of temperature and pH were also explored. For these efforts, Bu2N-TTz-Py was chosen as a focal representative of the asymmetric TTzs for its solubility, amphiphilicity, high Stokes shifts, and otherwise similar photophysical characteristics. For the temperature studies, a 10 μM MeTHF solution of Bu2N-TTz-Py was prepared and the emission of the solution was monitored from −196-60° C. MeTHF was chosen for its wide liquid temperature window and ability to form a glass upon freezing; most other solvents crystallize upon solidification and inhibit fluorescence. The low temperature studies were achieved using various liquid N2 cooling baths (see Experimental). Due to the condensation of atmospheric moisture during low-temperature testing, only the normalized emission intensities are reported. […] At temperatures near the freezing point of MeTHF and below, however, the wavelength of emission rapidly blue-shifts from 559 to 544 to 503 nm at −131, −136, and −196° C., respectively.
4-pyridine carboxaldehyde, 4-(dibutylamino)benzaldehyde, 4-(diphenylamino)benzaldehyde, terephthalaldehyde, dithiooxamide, and all solvents used for spectroscopic measurements were purchased from Sigma-Aldrich and used without further purification. ^1H and ^13CNMR measurements were obtained with either a JEOL 300 MHz NMR or a JEOL 500 MHz NMR. High resolution mass spectra were obtained using a Thermo Fisher Scientific MSQ Plus Single Quadrupole Mass Spectrometer. Solution-state UV-Vis spectra were collected on a Cary 300 UV-Vis spectrophotometer. Time-resolved measurements were taken on a Jobin Yvon-Spex Fluorolog equipped with a 389 nm diode laser for time-resolved PL decay measurements. Igor Pro 6.3 software was used to fit PL(t) decay data to single/multiple exponential decays. Quantum yields were calculated using 9,10-diphenylanthracene as a reference (quantum yield [ΦF] in cyclohexane=0.97).^40-41 Density functional theory (DFT) calculations were performed with Spartan computational software using B3LYP^42-43 density functional and 6-31G*^44 basis set. Temperature studies were conducted using a 10 μM Bu2N-TTz-Py MeTHF solution placed inside of a Norrell 502 NMR tube and sequentially submerged in the following liquid N2 baths:octanol (−16° C.), acetonitrile (−41° C.), acetone (−94° C.), pentane (−131° C.), MeTHF (−136° C.), and liquid N2 itself (−196° C.). The phosphorescence spectrum of Bu2N-TTz-Py (see S2) was collected similarly at −196° C. by pumping with 389 nm light while inside a liquid nitrogen bath and then probing the emission within 2 sec of removing from the bath. Human embryonic kidney cells (HEK 293T) were a kind gift from Prof. Bryan Dickinson, and Mouse macrophage J774A.1 cells were a kind gift from Prof. Deborah Nelson at the University of Chicago. Cells were cultured in Dulbecco's Modified Eagle's Medium (Invitrogen Corporation, USA) containing 10% heat inactivated Fetal Bovine Serum (FBS) (Invitrogen Corporation, USA), 100 U/mL penicillin, and 100 μg/mL streptomycin. Cells were maintained at 37° C. under 5% CO2.

HEK 293T cells = assay: Whole-cell patch clamp voltage sensitivity; assay type: cell-based, Human; settings: 500 nM dye, cells held at −60 mV, 10 mV steps
Method: Having established its environmental sensitivity and proclivity for membrane localization, it was hypothesized that Bu2N-TTz-Py could orient itself favorably within cell membranes and sense voltage differentials across the membrane. To test the membrane voltage sensitivity of Bu2N-TTz-Py, whole-cell patch clamp electrophysiology was performed on HEK 293T cells labeled with 500 nM Bu2N-TTz-Py. […] Tests concluded that Bu2N-TTz-Py has a voltage sensitivity of approximately 10% ΔF/F per 100 mV. For context, early generation VSDs, such as RH-421, ANNINE-6, and VF2.1.Cl, display maximum voltage sensitivities of 10%-25% ΔF/F per 100 mV.
Cell labeled spectral measurements. Excitation and emission spectra were collected by labeling the alveolar macrophage cell line J774.A1 (~0.5×10^5 cells) with 1 μM Bu2N-TTz-Py in phosphate buffered saline (PBS) buffer and 0.1% TritonX-100. Cells were incubated with dye for 10 min at RT, washed thrice with PBS, and dispersed in a cuvette for fluorescent spectral measurements (Fluoromax-4, Horiba Scientific, Edison, NJ, USA). Excitation spectra were collected at 520 nm emission. Emission spectra were collected by exciting at 440 nm. Electrophysiology. […]

[2] = Solubility in aqueous environments; assay type: physicochemical

## CCCCN(CCCC)c1ccc(-c2nc3sc(-c4ccncc4)nc3s2)cc1 [Bu2N-TTz-Py, 2-(N,N-dibutyl-4-aminophenyl)-5-(4-pyridyl) thiazolo[5,4-d]thiazole]
[1]; 60° C.
  wavelength of emission: 519 nm
[1]; −131° C.
  wavelength of emission: 559 nm
[1]; −136° C.
  wavelength of emission: 544 nm
[1]; −196° C.
  wavelength of emission: 503 nm
[1]; TTz/MeTHF solution, liquid range of MeTHF
  temperature sensitivity of emission wavelength: −0.21 nm ° C.^−1
HEK 293T cells
  voltage sensitivity: approximately 10 % ΔF/F per 100 mV
[2]
  solubility in aqueous environments: poor solubility
